# Data as given in patent publication US11154589B2, “Antimicrobial composition combinations comprising star shaped peptide polymers” (The University of Melbourne, priority 2016, dated 2021).
# Like-named read-outs stand apart in the source and are kept apart here. Marks after values point to notes of the source that are not given here.
# How the values were obtained:
# [1] = tested on: CMDR A. baumannii (FADDI-AB156); assay: Antibiogram of CMDR A. baumannii (MIC); assay type: cell-based, Acinetobacter baumannii; details: for Susceptibility: interpreted by CLSI resistant breakpoints
# [2] = tested on: CMDR P. aeruginosa (FADDI-PA067); assay: Antibiogram of CMDR P. aeruginosa; assay type: cell-based, Pseudomonas aeruginosa; details: for Susceptibility: interpreted by CLSI resistant breakpoints
# [3] = tested on: CMDR A. baumannii (FADDI-AB156); assay: S16-antibiotic co-administration, synergy by Bliss Independence and HSA models; assay type: cell-based, Acinetobacter baumannii; details: for MBC in combination: S16 and antibiotic co-administered, each at MBC50, 3 h
# Procedure: (§1) The 96-well plate was then incubated at 37° C. for 1.5 or 3 h. For each well, microbial solution was diluted with saline (0.9% NaCl solution) using an appropriate dilution factor and placed on a LB agar plate (LB broth containing 15 g/L Oxoid Blood Agar Base No. 2). For E. coli, K. pneumoniae, and A. Baumannii (ATCC 19606 and FADDI-AB156), the agar plates were incubated overnight at room temperature, and then at 37° C. with aeration for 2 h. For P. Aeruginosa (ATCC 47085 and FADDI-PA067), the agar plates were incubated at 37° C. with aeration. The number of colony-forming units (CFU) was counted and expressed as CFU/mL. Positive controls consisting of cells without any treatment were used. […] A minimum of two independent experiments (biological replicates) of the assay were conducted and three technical replicates were used in each experiment. Data is expressed as mean±standard deviation (SD) and analysed using student's t-test.
# (§2) The Bliss Independence and HSA models were used to calculate drug synergism. […] Biotechnol. 31, 160-165 (2013). With the Bliss Independence model, synergism was calculated using the formula, BICAB=A+B−AB (1), where A and B are the effects of the two drugs in isolation and BICAB is the combined effect of the two drugs as predicted by the Bliss Independence model. […] In the HSA model, if CAB is greater than the greater of A and B, CAB>max(A, B), synergy is observed. The quantitative effect of the compounds when administered alone (i.e., A and B) or in combination (i.e., CAB) was defined as the fractional reduction of the population, R=1−CFUt/CFU0, where CFUt is the CFU/mL measured after treatment, and CFU0 is the CFU/mL measured before treatment.
# [4] = tested on: CMDR A. baumannii (FADDI-AB156); assay: MBC determination (in vitro antimicrobial experiment, CFU counting); assay type: cell-based, Acinetobacter baumannii; details: Acinetobacter baumannii, compound alone
# Procedure: (§3) Freeze-dried cultures of Escherichia coli (E. coli, ATCC 25922), Klebsiella pneumoniae (K. pneumoniae, ATCC 13883), Pseudomonas aeruginosa (P. aeruginosa, ATCC 47085), Acinetobacter baumannii (A. baumannii, ATCC 19606), colistin and multidrug-resistant (CMDR) A. baumannii (FADDI-AB156), and CMDR P. aeruginosa (FADDI-PA067) were grown aerobically and maintained by passage at ambient temperature on horse blood agar (10% v/v defibrinated horse blood, 4.4% w/v Oxoid Blood Agar Base No. 2). Overnight cultures were made from transferring a colony (ca. half a loop) from the agar plates to culture tubes containing sterilized Luria-Bertani broth (LB, 1% w/v Bacto™ Tryptone, 1% w/v NaCl, 0.5% w/v Oxoid Yeast Extract) (20 mL). Bacterial cultures were incubated overnight at 37° C. with aeration and without agitation, with the exception of the two P. aeruginosa strains (ATCC 47085 and FADDI-PA067) which were cultured at 37° C. with aeration and agitation (150 rpm). On the next day, for E. coli, K. pneumonia, P. aeruginosa (ATCC 47085), and CMDR P. aeruginosa (FADDI-PA067), small aliquots (i.e., 0.5-3 mL) were taken from the culture tubes, further diluted with LB (20 mL), and incubated for 3-4 h at 37° C. with aeration before use. All bacterial cultures were cultured without agitation, with the exception of P. aeruginosa ATCC 47085 and FADDI-PA067 which were cultured with shaking at 150 rpm. For A. baumannii, an aliquot of 0.5 mL was taken from the overnight culture tube, further diluted with LB (200 mL), and incubated overnight at 37° C. with aeration before use.
# as §1
# [5] = tested on: CMDR P. aeruginosa (FADDI-PA067); assay: as above; assay type: cell-based, Pseudomonas aeruginosa; details: Pseudomonas aeruginosa, compound alone
# Procedure: as §3, §1
# [6] = tested on: CMDR P. aeruginosa (FADDI-PA067); assay: S16-antibiotic co-administration, synergy by Bliss Independence and HSA models; assay type: cell-based, Pseudomonas aeruginosa; details: for MBC in combination: S16 and antibiotic co-administered, each at MBC50, 3 h
# Procedure: as §1, §2
# [7] = tested on: Acinetobacter baumannii (A. baumannii, ATCC 19606); assay: as above; assay type: cell-based; details: for MBC in combination: S16 and antibiotic co-administered, each at MBC50
# Procedure: as §1, §2
# [8] = tested on: Pseudomonas aeruginosa (P. aeruginosa, ATCC 47085); assay: as above; assay type: cell-based; details: for MBC in combination: S16 and antibiotic co-administered, each at MBC50
# Procedure: as §1, §2
# [9] = tested on: Acinetobacter baumannii (A. baumannii, ATCC 19606); assay: MBC determination (in vitro antimicrobial experiment, CFU counting); assay type: cell-based; details: Acinetobacter baumannii, ATCC19606; compound alone; A. baumannii (wild-type)
# Procedure: as §3, §1
# [10] = tested on: Pseudomonas aeruginosa (P. aeruginosa, ATCC 47085); assay: as above; assay type: cell-based; details: Pseudomonas aeruginosa, ATCC47085; compound alone; P. aeruginosa (wild-type)
# Procedure: as §3, §1
# [11] = Acinetobacter baumannii, CMDR A. baumannii (FADDI-AB156), read-out: MIC
# [12] = CMDR A. baumannii (FADDI-AB156)
# [13] = antibiotic in combination with S16, 3 h, Bliss Independence model
# [14] = antibiotic in combination with S16, 3 h, Highest Single Agent model
# [15] = co-administered S16 (at MBC50) and antibiotic, antibiotic concentration giving at least 2-log reduction in CFU/mL, 3 h
molecule,measurement,setting,value
Cc1nnc(SCC2=C(C(=O)O)N3C(=O)[C@@H](NC(=O)Cn4cnnn4)[C@H]3SC2)s1 [Cefazolin],MIC,[1]; [11],≥ 141 µM
same,Susceptibility,[1]; [12],Resistant
C[C@@H](O)[C@H]1C(=O)N2C(C(=O)O)=C(S[C@@H]3CN[C@H](C(=O)N(C)C)C3)[C@H](C)[C@H]12 [Meropenem],MIC,[1]; [11],≥ 41.7 µM
same,Susceptibility,[1]; [12],Resistant
CCN1CCN(C(=O)N[C@@H](C(=O)N[C@@H]2C(=O)N3[C@@H]2SC(C)(C)[C@@H]3C(=O)O)c2ccccc2)C(=O)C1=O [Piperacillin],Susceptibility,[2],Resistant
C[C@H]1[C@H](NC(=O)/C(=N\OC(C)(C)C(=O)O)c2csc(N)n2)C(=O)N1S(=O)(=O)O [Aztreonam],Susceptibility,[2],Resistant
CCn1cc(C(=O)O)c(=O)c2ccc(C)nc21 [Nalidixic Acid],MIC,[1]; Acinetobacter baumannii,≥ 138 µM
same,Susceptibility,[1]; [12],Resistant
CC1(C)S[C@@H]2[C@H](NC(=O)[C@H](C(=O)O)c3ccsc3)C(=O)N2[C@H]1C(=O)O [Ticarcillin],Susceptibility,[2],Resistant
CC(C)(O/N=C(\C(=O)N[C@@H]1C(=O)N2C(C(=O)[O-])=C(C[n+]3ccccc3)CS[C@H]12)c1csc(N)n1)C(=O)O [Ceftazidime],MIC,[1]; [11],≥ 117 µM
same,Susceptibility,[1]; [12],Resistant
same,Susceptibility,[2],Resistant
"NC[C@H]1O[C@H](O[C@H]2[C@H](O)[C@@H](O[C@H]3O[C@H](CO)[C@@H](O)[C@H](N)[C@H]3O)[C@H](N)C[C@@H]2N)[C@H](N)C[C@@H]1O [Tob, tobramycin]",MIC,[1]; [11],> 2190 µM
same,Susceptibility,[1]; [12],Resistant
same,Interaction with S16 as evaluated by the Bliss Independence and HSA models (in words),[3]; 3 h time point,non-synergistic
same,MBC in combination,[3],2190.3 µM
same,Antimicrobial activity on co-administration with S16 compared to compounds alone (log change in CFU/mL),"[3]; all compounds at MBC50, t=3 h",antagonistic
same,Synergistic? (Yes/No) Bliss*,[3]; [13],No
same,Synergistic? (Yes/No) HAS*,[3]; [14],No
same,MBC,[4],> 2190 µM
same,Susceptibility,[2],Resistant
same,MBC,[5],239 µM
same,Interaction with S16 as evaluated by the Bliss Independence and HSA models (in words),[6]; 3 h time point,non-synergistic
same,MBC in combination,[6],119.7 µM
same,Antimicrobial activity on co-administration with S16 compared to compounds alone (log change in CFU/mL),"[6]; all compounds at MBC50, t=3 h",antagonistic
same,Synergistic? (Yes/No) Bliss*,[6]; [13],No
same,Synergistic? (Yes/No) HAS*,[6]; [14],No
same,Interaction with S16 as evaluated by the Bliss Independence and HSA models (in words),"[7]; A. baumannii wild-type, 3 h time point",non-synergistic
same,Antimicrobial activity on co-administration with S16 compared to compounds alone (log change in CFU/mL),"[7]; A. baumannii wild-type, all compounds at MBC50, t=3 h",antagonism
same,MBC in combination,"[7]; A. baumannii, 3 h",7.6 µM
same,Synergistic? (Yes/No) Bliss*,"[7]; antibiotic in combination with S16, A. baumannii, 3 h, Bliss Independence model",No
same,Synergistic? (Yes/No) HAS*,"[7]; antibiotic in combination with S16, A. baumannii, 3 h, Highest Single Agent model",No
same,Interaction with S16 as evaluated by the Bliss Independence and HSA models (in words),"[8]; P. aeruginosa wild-type, 3 h time point",non-synergistic
same,Antimicrobial activity on co-administration with S16 compared to compounds alone (log change in CFU/mL),"[8]; P. aeruginosa wild-type, all compounds at MBC50, t=3 h",antagonism
same,MBC in combination,"[8]; P. aeruginosa, 3 h",1.9 µM
same,Synergistic? (Yes/No) Bliss*,"[8]; antibiotic in combination with S16, P. aeruginosa, 3 h, Bliss Independence model",No
same,Synergistic? (Yes/No) HAS*,"[8]; antibiotic in combination with S16, P. aeruginosa, 3 h, Highest Single Agent model",No
same,MBC,[9],15.2 µM
same,MBC,[10],3.9 µM
NCC[C@H](O)C(=O)N[C@@H]1C[C@H](N)[C@@H](O[C@H]2O[C@H](CN)[C@@H](O)[C@H](O)[C@H]2O)[C@H](O)[C@H]1O[C@H]1O[C@H](CO)[C@@H](O)[C@H](N)[C@H]1O [Amikacin],MIC,[1]; [11],≥ 109 µM
same,Susceptibility,[1]; [12],Resistant
CO[C@@]1(NC(=O)Cc2cccs2)C(=O)N2C(C(=O)O)=C(COC(N)=O)CS[C@@H]21 [Cefoxitin],MIC,[1]; [11],≥ 150 µM
same,Susceptibility,[1]; [12],Resistant
"C[C@H]1c2cccc(O)c2C(=O)C2=C(O)[C@]3(O)C(=O)C(C(N)=O)=C(O)[C@@H](N(C)C)[C@@H]3[C@@H](O)[C@@H]21 [Dox, doxycycline]",MBC,[5],630 µM
same,Fold reduction of MBC,[6]; MBCeff with S16 versus MBC alone,4.2 fold
same,MBC in combination,[6],295.3 µM
same,"MBC in combination, MBCeff",[6]; [15],148.2^a μM
same,MBC in combination,"[8]; P. aeruginosa, 3 h",25.3 µM
same,MBC,[10],50.7 µM
COc1cc(Cc2cnc(N)nc2N)cc(OC)c1OC [Trimethoprim],MIC,[1]; [11],≥ 55.1 µM
same,Susceptibility,[1]; [12],Resistant
"C[C@@H](O)[C@H]1C(=O)N2C(C(=O)O)=C(SCCN=CN)C[C@H]12 [Imi, imipenem]",MIC,[1]; [11],355 µM
same,Fold reduction of MBC,[3]; MBCeff in combination versus MBC alone,4.0 fold
same,MBC in combination,[3],177.4 µM
same,"MBC in combination, MBCeff",[3]; [15],88.2^a μM
same,MBC,[4],355 µM
same,MBC in combination,"[7]; A. baumannii, 3 h",19.0 µM
same,MBC,[9],37.8 µM
O=C(O)c1cn(C2CC2)c2cc(N3CCNCC3)c(F)cc2c1=O [Ciprofloxacin],MIC,[1]; [11],≥ 12.1 µM
CO/N=C(\C(=O)N[C@@H]1C(=O)N2C(C(=O)O)=C(CSc3nc(=O)c(=O)[nH]n3C)CS[C@H]12)c1csc(N)n1 [Ceftriaxone],MIC,[1]; [11],≥ 115 µM
same,Susceptibility,[1]; [12],Resistant
O=C1CN(/N=C/c2ccc([N+](=O)[O-])o2)C(=O)N1 [Nitrofurantoin],MIC,[1]; [11],≥ 2150 µM
Colistin Sulfate,Susceptibility,[1]; [12],Resistant
same,MIC,"[1]; CMDR A. baumannii (FADDI-AB156), read-out: MIC",13.8 µM
same,"Susceptibility, concentration in parentheses",[2],> 110.8 µM
same,Susceptibility,[2],Resistant
CCn1cc(C(=O)O)c(=O)c2cc(F)c(N3CCNCC3)cc21 [Norfloxacin],MIC,[1]; [11],≥ 50.1 µM
same,Susceptibility,[1]; [12],Resistant
CO/N=C(\C(=O)N[C@@H]1C(=O)N2C(C(=O)[O-])=C(C[N+]3(C)CCCC3)CS[C@H]12)c1csc(N)n1 [Cefepime],MIC,[1]; [11],≥ 133 µM
same,Susceptibility,[1]; [12],Resistant
